In one assay the target is NDM-1 (Klebsiella pneumoniae, UniProt C7C422). The experiment in a line: In vitro MBLs inhibition assay with CENTA substrate, NDM-1. The class given is biochemical. To be noted: for inhibition at 5 µM: 5 µM compound, CENTA 70 µM. The protocol:
(§1) Assays of enzyme inhibition were measured in the absence and presence of 5 µM of compound 4a–c and their ZnO conjugated hybrids to determine their inhibitory activity (IMP1 and NDM-1). CENTA (70 µM), a chromogenic cephalosporin substrate, was employed. The chromophore […] is formed when MBLs hydrolyze CENTA, and its generation may be detected spectrophotometrically using a plate reader at = 405 nm (at pH 7.0, ε = 6400 M^−1 cm^−1). Assays of kinetics of the inhibition experiments were carried out in accordance with earlier research. Non-linear regression was used to examine the inhibition data.

The next assay concerns the target IMP-1 (Serratia marcescens, UniProt P52699). Briefly: In vitro MBLs inhibition assay with CENTA substrate, IMP-1. The class given is biochemical. The note with it: for inhibition at 5 µM: 5 µM compound, CENTA 70 µM, read-out: % Inhibition IPM-1 (5 µM). The protocol: as §1
The mark [1] stands for this setting: inhibition constant for the competitive inhibition mode, read-out: NDM-1 Kic.
Setting [2] is: inhibition constant for the uncompetitive inhibition mode, read-out: NDM-1 Kiuc.
Setting [3] is: inhibition constant for the competitive inhibition mode, read-out: IPM-1 Kic.
Where [4] appears, read: inhibition constant for the uncompetitive inhibition mode, read-out: IPM-1 Kiuc.

Molecules are shown by their SMILES. Where two headings read alike, the source gives them in different places.

Our source for the inhibition and Ki values is publication PMC9312158, “Novel 1,2,3-Triazole-sulphadiazine-ZnO Hybrids as Potent Antimicrobial Agents against Carbapenem Resistant Bacteria” (Antibiotics, 2022).

Sequence of NDM-1 (C7C422 29-270, looked up, species assumed): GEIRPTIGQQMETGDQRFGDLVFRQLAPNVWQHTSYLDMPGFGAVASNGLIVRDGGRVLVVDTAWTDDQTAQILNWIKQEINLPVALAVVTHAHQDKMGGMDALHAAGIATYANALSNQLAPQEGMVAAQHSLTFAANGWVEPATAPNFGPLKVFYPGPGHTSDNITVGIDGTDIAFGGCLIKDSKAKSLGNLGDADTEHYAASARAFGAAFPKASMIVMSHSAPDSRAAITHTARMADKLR
Sequence of IMP-1 (P52699 19-246, looked up, species assumed): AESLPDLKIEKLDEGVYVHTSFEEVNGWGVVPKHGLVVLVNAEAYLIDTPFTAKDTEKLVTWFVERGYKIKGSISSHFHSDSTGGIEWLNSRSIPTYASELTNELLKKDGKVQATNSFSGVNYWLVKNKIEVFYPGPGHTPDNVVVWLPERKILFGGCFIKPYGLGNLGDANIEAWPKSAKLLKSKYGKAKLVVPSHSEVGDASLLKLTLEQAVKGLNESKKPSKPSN

With `NC(N)=NS(=O)(=O)c1ccc(-n2cc(CO)nn2)cc1` [Compound 3c], the values for the inhibition at 5 µM against NDM-1 and on IMP-1 were 64.3% and 72.9%, respectively. The Ki on NDM-1 (setting [1]) worked out at 8.5 µM; on NDM-1 (setting [2]), 3.9 µM; on IMP-1 (setting [3]) it was 10.9 µM; on IMP-1 (setting [4]) it was 5.1 µM.

As to `O=S(=O)(Nc1ccccn1)c1ccc(-n2cc(CO)nn2)cc1` [Compound 3b], the inhibition – broadly, the percentage by which the read-out fell short of the control – at 5 µM at NDM-1 turned out to be 68.7%; at IMP-1, 75.4%. For the same compound, the Ki at NDM-1 (setting [1]) was 9 µM; at NDM-1 (setting [2]), 6 µM; on IMP-1 (setting [3]), 11.4 µM; at IMP-1 (setting [4]), 7.6 µM.

On to `O=S(=O)(Nc1ncccn1)c1ccc(-n2cc(CO)nn2)cc1` [Compound 3a], for which the inhibition at 5 µM worked out at 71.2% against NDM-1 and 75% at IMP-1. Also, the Ki at NDM-1 (setting [1]) stood at 9.6 µM; at NDM-1 (setting [2]), 6 µM; on IMP-1 (setting [3]), 11.8 µM; on IMP-1 (setting [4]) it was 7.7 µM.
